{"source": "paper PMC9166766", "about": "(Experimental & Molecular Medicine, 2022)", "tested_on": "Jurkat T cells (PMA and ionomycin-induced gene expression)", "assay": "mRNA sequencing of activated Jurkat T cells", "format": "cell-based, human", "protocol": "We then extracted RNA from these cells. Construction of the cDNA library and next-generation sequencing was performed at LAS (Gimpo, Korea). We sequenced all samples on an Illumina NextSeq 500 system with 75 paired-end reads. For the RNA sequencing analysis, reads for each sample were aligned to the human genome (GRCh37/hg19 genome assembly) using STAR 2.4.0.1[25] with default settings. We used HOMER tools to quantify and normalize the defined genes in RefSeq transcripts. FPKM normalized genes were hierarchically clustered using Cluster3.0[26]. We visualized refined data with Java Treeview (http://jtreeview.sourceforge.net). We conducted gene ontology analysis of each cluster using the DAVID web tool (https://david.ncifcrf.gov). Finally, we visualized the expression levels of target genes using the Integrative Genomics Viewer (http://software.broadinstitute.org/software/igv). The raw data were submitted to the NCBI Gene Expression Omnibus under accession number GSE185561.\nFig. 3 The CABIN1 peptide inhibits T-cell activation. a Heatmap of altered genes affected by FK506 treatment or CABIN1 peptide expression upon T-cell activation. b Gene Ontology analysis of cluster III. c mRNA expression levels of genes included in cluster III. d qRT-PCR data of genes in c. The experiment was independently repeated at least three times, and the data are presented as the mean ± standard deviation. Statistical differences were determined using two-tailed Student’s t-test. *p < 0.05, **p < 0.01, ***p < 0.001, NC negative control."}
{"smiles": "C=CC[C@@H]1/C=C(\\C)C[C@H](C)C[C@H](OC)[C@H]2O[C@@](O)(C(=O)C(=O)N3CCCC[C@H]3C(=O)O[C@H](/C(C)=C/[C@@H]3CC[C@@H](O)[C@H](OC)C3)[C@H](C)[C@@H](O)CC1=O)[C@H](C)C[C@@H]2OC", "note": "[FK506, reference compound]", "values": [{"measurement": "CD27 and CD70 expression", "setting": "Jurkat, PMA and ionomycin 8 h", "value": "repressed"}, {"measurement": "RNA levels of T-cell activation markers (IL2, IL3, NFATC1, CCL4, CCL20, CXCL8)", "setting": "Jurkat, PMA and ionomycin 8 h", "value": "reduced the RNA levels"}, {"measurement": "TM4SF1 expression", "setting": "P+I 8 h, NC 0, NC_P+I 3.268", "value": 0.439, "unit": "FPKM"}, {"measurement": "CD200 expression", "setting": "P+I 8 h, NC 0, NC_P+I 3.759", "value": 0, "unit": "FPKM"}, {"measurement": "ZP4 expression", "setting": "P+I 8 h, NC 0, NC_P+I 6.38", "value": 0.462, "unit": "FPKM"}, {"measurement": "CCL3L1 expression", "setting": "P+I 8 h, NC 0, NC_P+I 6.448", "value": 0, "unit": "FPKM"}, {"measurement": "CCL3L3 expression", "setting": "P+I 8 h, NC 0, NC_P+I 6.524", "value": 0, "unit": "FPKM"}, {"measurement": "CCL1 expression", "setting": "P+I 8 h, NC 0, NC_P+I 9.86", "value": 0, "unit": "FPKM"}, {"measurement": "NR4A2 expression", "setting": "P+I 8 h, NC 0, NC_P+I 10.173", "value": 0.04, "unit": "FPKM"}, {"measurement": "CCL4L2 expression", "setting": "P+I 8 h, NC 0, NC_P+I 12.758", "value": 0.087, "unit": "FPKM"}, {"measurement": "CCL4L1 expression", "setting": "P+I 8 h, NC 0, NC_P+I 13.27", "value": 0.087, "unit": "FPKM"}, {"measurement": "CSF2 expression", "setting": "P+I 8 h, NC 0, NC_P+I 23.497", "value": 0, "unit": "FPKM"}, {"measurement": "XCL1 expression", "setting": "P+I 8 h, NC 0, NC_P+I 49.113", "value": 0, "unit": "FPKM"}, {"measurement": "CCL3 expression", "setting": "P+I 8 h, NC 0, NC_P+I 52.239", "value": 0, "unit": "FPKM"}, {"measurement": "CCL20 expression", "setting": "P+I 8 h, NC 0, NC_P+I 59.393", "value": 0, "unit": "FPKM"}, {"measurement": "IL3 expression", "setting": "P+I 8 h, NC 0, NC_P+I 229.054", "value": 0.062, "unit": "FPKM"}, {"measurement": "CCL4 expression", "setting": "P+I 8 h, NC 0, NC_P+I 247.287", "value": 0, "unit": "FPKM"}, {"measurement": "IL2 expression", "setting": "P+I 8 h, NC 0, NC_P+I 397.807", "value": 0.287, "unit": "FPKM"}, {"measurement": "C3 expression", "setting": "P+I 8 h, NC 0.006, NC_P+I 3.907", "value": 0.489, "unit": "FPKM"}, {"measurement": "TNS3 expression", "setting": "P+I 8 h, NC 0.008, NC_P+I 13.196", "value": 0.678, "unit": "FPKM"}, {"measurement": "PLS3 expression", "setting": "P+I 8 h, NC 0.019, NC_P+I 4.717", "value": 0.052, "unit": "FPKM"}, {"measurement": "CREB5 expression", "setting": "P+I 8 h, NC 0.031, NC_P+I 4.533", "value": 0.577, "unit": "FPKM"}, {"measurement": "IRF4 expression", "setting": "P+I 8 h, NC 0.034, NC_P+I 8.439", "value": 0.423, "unit": "FPKM"}, {"measurement": "CXCL8 expression", "setting": "P+I 8 h, NC 0.037, NC_P+I 26.755", "value": 0.937, "unit": "FPKM"}, {"measurement": "SLAMF1 expression", "setting": "P+I 8 h, NC 0.042, NC_P+I 5.663", "value": 0.217, "unit": "FPKM"}, {"measurement": "TNFSF14 expression", "setting": "P+I 8 h, NC 0.045, NC_P+I 69.958", "value": 1.023, "unit": "FPKM"}, {"measurement": "IL21R-AS1 expression", "setting": "P+I 8 h, NC 0.048, NC_P+I 23.616", "value": 1.927, "unit": "FPKM"}, {"measurement": "XCL2 expression", "setting": "P+I 8 h, NC 0.056, NC_P+I 70.747", "value": 0, "unit": "FPKM"}, {"measurement": "LIF expression", "setting": "P+I 8 h, NC 0.063, NC_P+I 3.697", "value": 0.143, "unit": "FPKM"}, {"measurement": "SHC4 expression", "setting": "P+I 8 h, NC 0.069, NC_P+I 4.391", "value": 0.663, "unit": "FPKM"}, {"measurement": "RGS16 expression", "setting": "P+I 8 h, NC 0.077, NC_P+I 29.102", "value": 1.172, "unit": "FPKM"}, {"measurement": "IL21R expression", "setting": "P+I 8 h, NC 0.1, NC_P+I 34.712", "value": 2.244, "unit": "FPKM"}, {"measurement": "CRTAM expression", "setting": "P+I 8 h, NC 0.104, NC_P+I 100.175", "value": 3.325, "unit": "FPKM"}, {"measurement": "ZNF704 expression", "setting": "P+I 8 h, NC 0.107, NC_P+I 4.985", "value": 0.014, "unit": "FPKM"}, {"measurement": "NTRK1 expression", "setting": "P+I 8 h, NC 0.167, NC_P+I 7.941", "value": 0.836, "unit": "FPKM"}, {"measurement": "PHEX expression", "setting": "P+I 8 h, NC 0.188, NC_P+I 17.377", "value": 0.213, "unit": "FPKM"}, {"measurement": "SORBS1 expression", "setting": "P+I 8 h, NC 0.196, NC_P+I 5.08", "value": 0.4, "unit": "FPKM"}, {"measurement": "TIAM2 expression", "setting": "P+I 8 h, NC 0.255, NC_P+I 4.095", "value": 0.27, "unit": "FPKM"}, {"measurement": "CRIM1 expression", "setting": "P+I 8 h, NC 0.268, NC_P+I 3.029", "value": 0.305, "unit": "FPKM"}, {"measurement": "SERPINB2 expression", "setting": "P+I 8 h, NC 0.28, NC_P+I 85.882", "value": 2.905, "unit": "FPKM"}, {"measurement": "CCND2 expression", "setting": "P+I 8 h, NC 0.321, NC_P+I 6.436", "value": 0.558, "unit": "FPKM"}, {"measurement": "CXCR3 expression", "setting": "P+I 8 h, NC 0.604, NC_P+I 14.322", "value": 0.503, "unit": "FPKM"}, {"measurement": "ISM1 expression", "setting": "P+I 8 h, NC 0.798, NC_P+I 56.893", "value": 0.726, "unit": "FPKM"}, {"measurement": "C10orf54 expression", "setting": "P+I 8 h, NC 0.84, NC_P+I 7.506", "value": 0.382, "unit": "FPKM"}, {"measurement": "CSF1 expression", "setting": "P+I 8 h, NC 0.848, NC_P+I 13.43", "value": 1.706, "unit": "FPKM"}, {"measurement": "SLC35E4 expression", "setting": "P+I 8 h, NC 0.887, NC_P+I 9.069", "value": 0.952, "unit": "FPKM"}, {"measurement": "ZNF827 expression", "setting": "P+I 8 h, NC 0.975, NC_P+I 3.401", "value": 1.521, "unit": "FPKM"}, {"measurement": "CD70 expression", "setting": "P+I 8 h, NC 1.101, NC_P+I 61.146", "value": 3.005, "unit": "FPKM"}, {"measurement": "PAM expression", "setting": "P+I 8 h, NC 1.154, NC_P+I 5.577", "value": 1.483, "unit": "FPKM"}, {"measurement": "FOXO1 expression", "setting": "P+I 8 h, NC 1.167, NC_P+I 8.247", "value": 1.77, "unit": "FPKM"}, {"measurement": "IRF8 expression", "setting": "P+I 8 h, NC 1.168, NC_P+I 14.813", "value": 1.19, "unit": "FPKM"}, {"measurement": "SCHIP1 expression", "setting": "P+I 8 h, NC 1.25, NC_P+I 3.933", "value": 1.535, "unit": "FPKM"}, {"measurement": "FOSL2 expression", "setting": "P+I 8 h, NC 1.294, NC_P+I 7.508", "value": 2.204, "unit": "FPKM"}, {"measurement": "TNFSF9 expression", "setting": "P+I 8 h, NC 1.393, NC_P+I 7.107", "value": 2.568, "unit": "FPKM"}, {"measurement": "IQCJ-SCHIP1 expression", "setting": "P+I 8 h, NC 1.402, NC_P+I 4.253", "value": 1.657, "unit": "FPKM"}, {"measurement": "STAT5A expression", "setting": "P+I 8 h, NC 1.417, NC_P+I 9.105", "value": 3.347, "unit": "FPKM"}, {"measurement": "TDRD9 expression", "setting": "P+I 8 h, NC 1.428, NC_P+I 25.902", "value": 1.245, "unit": "FPKM"}, {"measurement": "LOC729603 expression", "setting": "P+I 8 h, NC 1.468, NC_P+I 5.071", "value": 2.179, "unit": "FPKM"}]}
